Measurements reported in patent US8729048B2, “Methods and materials for assessing responsiveness to PARP inhibitors and platinating agents” (Mayo Foundation for Medical Education and Research, priority 2011, dated 2014).

Experiments:
Assay type in all cases: cell-based
[1] = test system: phospho-H2AX and phospho-DNA-PKcs foci in PEO1 cells; test: Immunofluorescence / confocal foci in PEO1 cells
Experimental: (§1) FIG. 2. DNA-PK is activated following PARP inhibitor exposure in PEO1 cells. (A) Western blots for poly(ADP-ribose) polymer (pADPr) and phosphorylation of DNA-PK substrates (DNA-PKcs autophosphorylation at Thr^2609 and Histone H2AX at Ser^139) in PEO1 cells following 72 hours exposure to increasing concentrations of ABT-888 (0, 0.625, 1.25, 2.5, 5, 10, 20, and 40 μM). Hsp90, total DNA-PKcs, and Histone H1 are used as loading controls. (B) Phosphorylation of DNA-PK substrates after treatment for 72 hours with diluent (0.2% DMSO, lanes 1 and 4), 500 nM DNA-PK inhibitor AZ12594248 (DNA-PKi, lanes 2 and 5), or 5 μM ATM inhibitor KU55933 (ATMi, lanes 3 and 6) alone (lanes 1-3) or in combination with 20 μM ABT-888 (lanes 4-6). (C) Quantitation of cells positive for phospho-H2AX foci in PEO1 and PEO4 cells, following treatment with DMSO, 500 nM DNA-PKi, 20 μM ABT-888 (ABT), ABT-888 and DNA-PKi, 50 μM Etoposide (Etop), or 5 Gy ionizing radiation (IR). Cells were exposed to ABT-888 and/or DNA-PKi for 72 hours, etoposide for 1 hour, or allowed to recover for 1 hour after IR. Results are reported as mean±SEM of 3 independent experiments. (D) Confocal images of PEO1 cells treated as in […]. Phospho-Ser^139-H2AX is shown in green, phospho-Thr^2609-DNA-PKcs in red, and Hoechst 33258 in blue.
FIG. 8. PARP inhibition induces phosphorylation of DNA-PKcs selectively in PEO1 cells. (A) Quantitation of PEO1 cells positive for phospho-Ser^2056 DNA-PKcs foci following 72 hours exposure to increasing concentrations of ABT-888. (B) Quantitation of PEO1 cells positive for phospho-Ser^2056 DNA-PKcs foci following 72 hours exposure to diluent (0.2% DMSO), 500 nM DNA-PKi, 5 μM ATMi alone (columns 1-3) or with 20 μM ABT-888 (columns 4-6). (C) Representative confocal images of PEO1 cells from (B). Phospho-H2AX is shown in green, phospho-Thr^2609 DNA-PKcs in red, and Hoechst 33258 in blue. Results in (A) and (B) are presented as means±SEM of 3 independent experiments.
FIG. 9. siRNA-mediated knockdown of NHEJ components reduces ABT-888 induced formation of phospho-H2AX foci. PEO1 cells, following siRNA-mediated knockdown of Ku80 (A) or Artemis (B), were exposed to either diluent (0.1% DMSO) or 20 μM ABT-888 for 72 hours, fixed, and stained for phospho-H2AX foci. Positive nuclei were defined as having >10 foci. Results are presented as means±SEM of 3 independent experiments. […]
Coverslips were then washed three times with PBS and incubated for 1 h with Alexa Fluor 488- and/or 568-conjugated secondary antibody (Invitrogen) diluted 1:1000. […] Phospho-H2AX positive cells (defined as having >10 foci/cell) were counted on a Zeiss Axioplan microscope. […] Quantitation and image processing were performed using the Zeiss Zen software package and Adobe Photoshop CS3.

[2] = test system: DNA-PK substrates (DNA-PKcs Thr2609, Histone H2AX Ser139) in PEO1 cells; test: Immunoblotting for phosphorylation of DNA-PK substrates; conditions: 72 hours
Experimental: as §1
Cells were washed twice with calcium- and magnesium-free Dulbecco's phosphate-buffered saline (PBS) and solubilized in 6 M guanidine hydrochloride containing 250 mM Tris-HCl, pH 8.5 at 20° C., 10 mM EDTA, 1% (v/v) 2-mercaptoethanol, and 1 mM freshly added phenylmethylsulfonyl fluoride. After preparation for electrophoresis as described elsewhere (Kaufmann et al., Blood, 89:2098-2104 (1997)), aliquots containing 50 μg of protein (determined by the bicinchoninic acid method—S10) were separated on SDS-polyacrylamide gels containing 8% (w/v) acrylamide, electrophoretically transferred to nitrocellulose, and probed with immunological reagents as described elsewhere (Kaufmann, Anal. Biochem., 296:283-286 (2001)). […]

PEO1 cells = test: Cytogenetics, metaphase spreads, PEO1
Experimental: FIG. 4. PARP inhibitor-induced chromosomal derangement and genomic instability is dependent on DNA-PK activity. (A) Representative images of metaphase spreads from cells treated with diluent (0.2% DMSO), 500 nM DNA-PKi, 2.5 μM ABT-888, or both ABT-888 and DNA-PKi for 72 hours. Chromosomal breaks are marked with arrowheads and radial structures are marked with asterisks. (B) Quantitation of data from (A) showing average radial chromosomes per cell (n=100 for each data point pooled from two separate experiments, error bars represent SEM). † indicate values that are zero. (C) Calculated mutagenesis frequency in BRCA2-mutant CAPAN1 cells after control treatment or exposure to ABT-888 with or without 250 nM DNA-PKi. Each bar represents the mean±SEM of 5-8 plates.
Cell harvest and metaphase slide preparation were performed for metaphase analysis as described elsewhere (Fletcher, Curr. Protoc. Hum. Genet., 2:Unit 10.13. (1994)). Fifty non-banded metaphases from each cell line were analyzed and scored for radial formations as well as major and minor breakage according to the International System of Human Cytogenetic Nomenclature. Images of cells with breakage were captured using a CytoVision Imaging System (Genetix; New Milton, UK).

C[C@]1(c2nc3c(C(N)=O)cccc3[nH]2)CCCN1 [ABT-888]
phospho-H2AX foci ([1]; 20 μM ABT-888, 72 hours): induced phospho-H2AX foci
DNA-PKcs autophosphorylation at Ser2056 ([1]; 72 hours): increased
ABT-888 induced phospho-H2AX foci after downregulation of Ku80 or Artemis ([1]; siRNA knockdown, 20 μM ABT-888, 72 hours): reduced ABT-888 induced phospho-H2AX foci
phosphorylation of DNA-PKcs at Thr2609 and H2AX at Ser139 ([2]; ABT-888 0-40 μM): phosphorylated in a dose-dependent manner
chromosome breaks and aberrant radial structures (PEO1 cells; 2.5 μM ABT-888, 72 hours): induced the formation of chromosome breaks and aberrant radial structures

CCN1CCN(CC(=O)Nc2ccc(-c3cccc4c(=O)cc(N5CCOCC5)oc34)c3sc4ccccc4c23)CC1 [AZ 12594248]
effect on ABT-888-induced formation of foci and phosphorylation of DNA-PKcs ([1]; 500 nM DNA-PKi with 20 μM ABT-888, 72 hours): reduced
effect on ABT-888-induced phosphorylation of DNA-PKcs and H2AX ([2]; with 20 μM ABT-888, 500 nM DNA-PKi or 5 μM ATMi): prevented the ABT-888-induced phosphorylation of DNA-PKcs and H2AX
effect on ABT-888-induced chromosome breaks and radial structures (PEO1 cells; 500 nM DNA-PKi with 2.5 μM ABT-888, 72 hours): substantially diminished this effect
